We go through 3 sequences from US11566056B2, “Peptide and use thereof for treatment of disease of brain and nervous system” (SYLUS CO., LTD, priority 2020, dated 2023).

Where “and” joins values, the source holds several entries; their conditions need not be identical. Equal entries are not always repeated. Ends that are not written are not given here.

One assay has as its system HT-22 cells. In words: cell viability under hypoxia-reoxygenation (H/R) conditions. As to conditions: for cell viability under hypoxia-reoxygenation conditions, Average: average of 3; for cell viability under hypoxia-reoxygenation conditions: individual replicate. In kind it is cell-based. Further details: cell viability under hypoxia-reoxygenation conditions / cell viability under hypoxia-reoxygenation conditions, Average: unit not given here. Here is the method:
First, the degree of cell viability was confirmed. Specifically, HT-22 cells cultured on a 96-well plate or a 6-well plate for 24 hours were maintained under hypoxic condition for 18 hours in a sealed airtight container of Anaeropack (Mitsubishi Gas Company, Tokyo, Japan). The Anaeropack absorbs oxygen and generates carbon dioxide, thereby inducing a hypoxic environment. Next, reoxygenation was performed at 5% CO2 and 37° C. for 3 hours.
Cell viability was compared when treated with SY-1, SY-2 and SY-3 of H/R cells cultured under low oxygen conditions (Hypoxia) and later cultured under oxygen conditions (Reoxygenation).

For assay [1], the target named is T1, Soluble mouse EPOR chimera protein (Mus musculus, UniProt P14753).
T1 construct: Soluble mouse EPOR chimera protein; purchased R&D Systems
T1 sequence (P14753 25-249 limits assumed): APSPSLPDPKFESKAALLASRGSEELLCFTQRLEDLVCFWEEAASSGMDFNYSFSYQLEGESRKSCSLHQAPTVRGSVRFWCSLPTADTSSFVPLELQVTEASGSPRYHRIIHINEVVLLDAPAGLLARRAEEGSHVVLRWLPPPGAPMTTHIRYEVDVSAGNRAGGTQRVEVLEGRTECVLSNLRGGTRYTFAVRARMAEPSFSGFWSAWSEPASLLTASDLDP
In words: surface plasmon resonance (SPR) binding to erythropoietin receptor. The conditions noted are these: peptide 5, 2.5 and 1.25 μM. Here is the method: The SPR technique uses an optical principle to measure the interaction between biomolecules in real time without a specific label, and is a system that analyzes the affinity and kinetics between two molecules, that is, Ka (association rate) and Kd (dissociation rate).
Specifically, the real-time SPR analysis was performed using Reichert SPR Biosensor SR 7500C equipment (Reichert Inc., NY, USA). Receptor mouse EPOR chimera protein (Soluble mouse EPOR chimera protein)(R&D Systems, Minneapolis, Minn., USA) was covalently bonded to a chip (BR-1005-39, Pharmacia Biosensor AB) coated with carboxy methylated dextran matrix by an amine coupling procedure using an amine coupling kit (BR-1000-50, GE Healthcare, USA) according to the manufacturer's manual. Peptides having concentrations of 5, 2.5 and 1.25 μM according to the present disclosure and scrambled peptides were tested by flowing at a flow rate of 5 μl/minute. In addition, the experiment was independently repeated to increase the accuracy. In addition, DMSO was flowed at 5 μl/minute to normalize the signal. After sufficiently inducing the binding of the peptide of an aspect to the receptor, regeneration was induced by injecting 20 μl/minute of 25 mM acetic acid into a sensor chip.
(In general: Surface plasmon resonance follows binding to a sensor surface in real time, without labels.)

In the case of LQLHVLKAVSGLRTLTTLLRALG [SY-1], in the assay with HT-22 cells (1 uM), the “cell viability under hypoxia-reoxygenation conditions, Average” value (shortened to “cell viability … Average”) stood at 0.654; the “cell viability under hypoxia-reoxygenation conditions” value is 0.662 and 0.657 and 0.644. For the same sequence, in the assay on HT-22 cells (2.5 uM), the “cell viability … Average” value came out at 0.655; the “cell viability under hypoxia-reoxygenation conditions” value is 0.649 and 0.663 and 0.652. For the same sequence, in the assay with HT-22 cells (5 uM), the “cell viability … Average” value is on record as 0.647; the “cell viability under hypoxia-reoxygenation conditions” value was 0.648 and 0.653 and 0.641. In assay [1], the ka is listed as 31.5970 and the kd is given as 0.0446.
For LQLHVLKAVSGLRTLTMIRRALG [SY-2], in the assay on HT-22 cells (1 uM), the “cell viability … Average” value turned out to be 0.671; the “cell viability under hypoxia-reoxygenation conditions” value is 0.658 and 0.673 and 0.682. In the assay on HT-22 cells (2.5 uM), the “cell viability … Average” value came to 0.676; the “cell viability under hypoxia-reoxygenation conditions” value is 0.671 and 0.667 and 0.689. Moreover, in the assay on HT-22 cells (5 uM), the “cell viability … Average” value worked out at 0.661; the “cell viability under hypoxia-reoxygenation conditions” value was 0.652 and 0.677 and 0.655. In assay [1], this sequence gave a ka of 32.5770 and a kd of 0.0506.
As for LQLHVLKAVAGLRTLTMIRRALA [SY-3], in the assay with HT-22 cells (1 uM), the “cell viability … Average” value is reported as 0.726; the “cell viability under hypoxia-reoxygenation conditions” value was 0.722 and 0.736 and 0.719. Also, in the assay with HT-22 cells (2.5 uM), the “cell viability … Average” value was 0.735; the “cell viability under hypoxia-reoxygenation conditions” value is 0.739 and 0.741 and 0.724. Also, in the assay on HT-22 cells (5 uM), the “cell viability … Average” value is recorded as 0.727; the “cell viability under hypoxia-reoxygenation conditions” value was 0.707 and 0.732 and 0.741. In addition, the “cell viability under H/R conditions (in words)” value in the assay with HT-22 cells (hypoxia 18 hours, reoxygenation 3 hours) was “the cell viability was the highest”. In assay [1], this sequence yielded a ka of 25.6240 and a kd of 0.0554.
